This is an account of results in ChEMBL document CHEMBL3045327, “Synthesis, cytotoxic evaluation, and in silico studies of substituted N-alkylbromo-benzothiazoles” (Med Chem Res, 2013).

pIC50: −log10 of the molar value.

Holding throughout (format): functional, cell-based
In one assay the test system is Caco-2. Briefly: Cytotoxicity against Homo sapiens (human) Caco2 cells after 48 hr by SRB assay. Conditions: Caco-2, 48 h.
For a further assay, the system named is THP-1. The assay can be described thus: Cytotoxicity against Homo sapiens (human) THP1 cells after 48 hr by SRB assay. Particulars: for pIC50: THP-1, 48 h. On the technique in general: In SRB staining, fixed cells bind dye roughly in proportion to their protein.
The subject of another assay is A549. The assay can be described thus: Cytotoxicity against Homo sapiens (human) A549 cells after 48 hr by SRB assay. Particulars: for pIC50: A549, 48 h.
The next assay has as its system PC-3. The assay can be described thus: Cytotoxicity against Homo sapiens (human) PC3 cells after 48 hr by SRB assay. Particulars: for pIC50: PC-3, 48 h.

In the case of `Fc1ccc2nc(NCCCBr)sc2c1`, the negative logarithm of the IC50 (pIC50) (in general, the negative decadic logarithm of the IC50, by convention in mol/L) in the assay with Caco-2 was 4.03; in the assay with THP-1, 6.05; in the assay on A549, under 4.00; in the assay on PC-3 it was 5.60. Moreover, the Activity result in the assay with THP-1, with A549 and in the assay on PC-3 was “Dose-dependent effect” throughout.
Regarding `Clc1ccc2nc(NCCCBr)sc2c1`, the pIC50 with Caco-2 is 4.48; with THP-1, 4.22; in the assay on A549 it was under 4.00; in the assay on PC-3, 4.20. Besides, the Activity entry with THP-1, in the assay with A549 and in the assay with PC-3 was “Dose-dependent effect” in each case.
On to `Clc1cc2nc(NCCBr)sc2cc1Cl`, for which the negative-log IC50 (pIC50) in the assay on Caco-2 was 5.08; with THP-1 it was 5.07; in the assay with A549, 4.07; in the assay on PC-3, 4.62. The Activity entry with THP-1, with A549 and in the assay on PC-3 was “Dose-dependent effect” each time.
`Clc1cccc2sc(NCCCBr)nc12`: the pIC50 is under 4.00 in the assay with Caco-2, 5.76 in the assay on THP-1, under 4.00 in the assay with A549 and 5.51 in the assay with PC-3. In addition, the Activity entry in the assay with THP-1, with A549 and in the assay with PC-3 was “Dose-dependent effect” each time.
Take `Fc1ccc2nc(NCCBr)sc2c1`: the pIC50 in the assay with Caco-2 was 4.77; in the assay with THP-1 it was 6.00; in the assay with A549 it was 4.17; with PC-3, 5.00. In addition, the Activity result with THP-1, with A549 and with PC-3 was “Dose-dependent effect” each time.
As to `Clc1cccc2sc(NCCBr)nc12`, the negative-log IC50 (pIC50) was 4.57 in the assay with Caco-2, 3.96 with THP-1, under 4.00 in the assay on A549 and 3.96 in the assay with PC-3. For the same compound, the Activity result with THP-1, with A549 and with PC-3 was “Dose-dependent effect” in each case.
With `CC(=O)O[C@H]1C(=O)[C@@]2(C)[C@H]([C@H](OC(=O)c3ccccc3)[C@]3(O)C[C@H](OC(=O)[C@H](O)[C@@H](NC(=O)c4ccccc4)c4ccccc4)C(C)=C1C3(C)C)[C@]1(OC(C)=O)CO[C@@H]1C[C@@H]2O`, the Activity entry in the assay on THP-1, in the assay on A549 and in the assay with PC-3 was “Dose-dependent effect” in each case.
Take `CO[C@@]12[C@H](COC(N)=O)C3=C(C(=O)C(C)=C(N)C3=O)N1C[C@@H]1N[C@@H]12` [MITOMYCIN]: the Activity entry in the assay with THP-1, in the assay with A549 and with PC-3 was “Dose-dependent effect” each time. In addition, the negative-log IC50 (pIC50) with THP-1 was 5.82; in the assay on A549 it was 6.40.
As for `Clc1cc2nc(NCCCBr)sc2cc1Cl`, the negative-log IC50 (pIC50) is 4.20 with Caco-2, 5.15 with THP-1, under 4.00 with A549 and 4.55 in the assay on PC-3. Further, the Activity entry with THP-1, with A549 and in the assay with PC-3 was “Dose-dependent effect” each time.
As for `Cc1ccc2nc(NCCBr)sc2c1`, the pIC50 was 4.17 in the assay on Caco-2, 4.40 in the assay with THP-1, under 4.00 with A549 and 4.39 with PC-3. In addition, the Activity entry in the assay with THP-1, in the assay on A549 and with PC-3 was “Dose-dependent effect” each time.
For `COc1ccc2nc(NCCCBr)sc2c1`, the pIC50 in the assay on Caco-2 is 5.00; with THP-1, 5.52; in the assay with A549, 4.05; in the assay on PC-3 it was 6.22. The Activity result with THP-1, in the assay with A549 and in the assay on PC-3 was “Dose-dependent effect” throughout.
Consider `COc1ccc2nc(NCCBr)sc2c1`, for which the negative-log IC50 (pIC50) was 4.32 in the assay on Caco-2, 3.96 with THP-1, under 4.00 with A549 and 4.00 in the assay with PC-3. The Activity result with THP-1, in the assay with A549 and in the assay on PC-3 was “Dose-dependent effect” in each case.
With `Cc1ccc2nc(NCCCBr)sc2c1`, the pIC50 in the assay on Caco-2 is 4.09; in the assay with THP-1, 4.52; in the assay with A549 it was under 4.00; in the assay on PC-3, 4.27. For the same compound, the Activity entry with THP-1, in the assay on A549 and with PC-3 was “Dose-dependent effect” each time.
With `O=c1[nH]cc(F)c(=O)[nH]1` [FLUOROURACIL], the pIC50 in the assay on Caco-2 is 4.68. The Activity result in the assay on THP-1, in the assay with A549 and in the assay on PC-3 was “Dose-dependent effect” each time.
As for `Clc1ccc2nc(NCCBr)sc2c1`, the negative-log IC50 (pIC50) with Caco-2 is under 4.00; in the assay with THP-1, 4.01; in the assay on A549 it was under 4.00; in the assay with PC-3, 4.00. The Activity result in the assay with THP-1, in the assay on A549 and in the assay on PC-3 was “Dose-dependent effect” each time.
